The record followed here is US20020002171A1, “Materials and methods for killing nematodes and nematode eggs” (priority 2000, published 2002).

Bounds are passed on as bounds.

The first assay concerns Caenorhabditis elegans. The assay is described as follows: C. elegans L1 nematicidal dose response in 96-well plates, 5 day visual score (Example 2; same procedure for Example 7, Table 3). It is filed as in vivo. The arrangement: key to 5 Day Visual Score V1 / 5 Day Visual Score V2 / 5 Day Visual Score V3 / 5 Day Visual Score V4 / 5 Day Visual Score V6 / 5 Day Visual Score V5 / Initial HTS Run Visual Score / Follow-up HTS Run Visual Score: Dead: only stiff L1s (no movement); Dead (L4): worms are dead, but at a later larval stage; majority of worms are L1 (based on size) worms move when plate is tapped; majority of worms are L2 (based on size); majority of worms are L3 (based on size); majority of worms are L4 (based on size); AD: majority of worms are adult; #AD: 5 adult worms or less; B!: sterile (0-25 progeny); B: low broodsize (25-100 progeny); ˜B: moderate broodsize (100-250 progeny); <: reduced broodsize (250-500 progeny); OK: no effect (˜1000+ progeny). The conditions noted are these: Follow-up HTS run. A digest of the protocol: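 L1 larvae, 20 per well in NGM with 1% E. coli HB101 and antibiotic/antimycotic, exposed to six 3-fold dilutions from 70 μM down to 0.3 μM (1.4% DMSO at top). Held at 20° C; viability scored visually under 100× dissecting microscope on day 5.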
As to `CCOC(=O)CCN(Cc1ccccc1)c1nc(NCc2ccc(C(F)(F)F)cc2)ns1` [compound 313], the “Follow-up HTS Run % Run” value is 106% and the “Follow-up HTS Run mOD” value is 170 mOD.

For the compound `CN(CCc1ccccc1)c1nc(NCc2ccc(C(F)(F)F)cc2)ns1` [compound 314], the “Follow-up HTS Run % Run” value worked out at 103% and the “Follow-up HTS Run mOD” value came out at 166 mOD.

For the compound `CN(Cc1ccccc1)c1nc(NCc2ccc(C(F)(F)F)cc2)ns1` [compound 315], the “Follow-up HTS Run % Run” value was found to be 118% and the “Follow-up HTS Run mOD” value was found to be 190 mOD.

`OCC1CCCN1c1nc(NCc2ccc(C(F)(F)F)cc2)ns1` (centres unmarked) [compound 316]: the “Follow-up HTS Run % Run” value was determined as 106%, the “Follow-up HTS Run Visual Score” value is “L2” and the “Follow-up HTS Run mOD” value amounted to 171 mOD.

Turning to `COc1ccc(CCN(C)c2nc(NCc3ccc(C(F)(F)F)cc3)ns2)cc1OC` [compound 317], the “Follow-up HTS Run % Run” value is listed as 111%, the “Follow-up HTS Run Visual Score” value is “L2” and the “Follow-up HTS Run mOD” value worked out at 179 mOD.

Regarding `Cc1cccc(C)c1N1CCN(c2nc(NCc3ccccc3C(F)(F)F)ns2)CC1` [compound 318], the “Follow-up HTS Run % Run” value is 111%, the “Follow-up HTS Run Visual Score” value is recorded as “B (low broodsize (25-100 progeny))” and the “Follow-up HTS Run mOD” value was found to be 178 mOD.

Take `CCCCN(CC)c1nc(NCc2ccc(C(F)(F)F)cc2)ns1` [compound 319]: the “Follow-up HTS Run % Run” value is listed as 127%, the “Follow-up HTS Run Visual Score” value is on record as “L2” and the “Follow-up HTS Run mOD” value is given as 205 mOD.

The assay is the same for the next values; noted with them: Initial HTS run.
`CCOC(=O)CCN(Cc1ccccc1)c1nc(NCc2ccc(C(F)(F)F)cc2)ns1` [compound 313]: the “Initial HTS Run % Run” value came to 97%, the “Initial HTS Run Visual Score” value was “L2 - (Dead L3)” and the “Initial HTS Run mOD” value was determined as 107 mOD.

For `CN(CCc1ccccc1)c1nc(NCc2ccc(C(F)(F)F)cc2)ns1` [compound 314], the “Initial HTS Run % Run” value is on record as 106% and the “Initial HTS Run mOD” value is recorded as 117 mOD.

`CN(Cc1ccccc1)c1nc(NCc2ccc(C(F)(F)F)cc2)ns1` [compound 315]: the “Initial HTS Run % Run” value came to 112% and the “Initial HTS Run mOD” value came to 123 mOD.

Turning to `OCC1CCCN1c1nc(NCc2ccc(C(F)(F)F)cc2)ns1` (centres unmarked) [compound 316], the “Initial HTS Run % Run” value amounted to 100%, the “Initial HTS Run Visual Score” value is reported as “Dead(L3)” and the “Initial HTS Run mOD” value stood at 110 mOD.

With `COc1ccc(CCN(C)c2nc(NCc3ccc(C(F)(F)F)cc3)ns2)cc1OC` [compound 317], the “Initial HTS Run % Run” value was found to be 108% and the “Initial HTS Run mOD” value turned out to be 119 mOD.

As for `Cc1cccc(C)c1N1CCN(c2nc(NCc3ccccc3C(F)(F)F)ns2)CC1` [compound 318], the “Initial HTS Run % Run” value turned out to be 101%, the “Initial HTS Run Visual Score” value is on record as “B!-Clear-Few Eggs” and the “Initial HTS Run mOD” value is listed as 111 mOD.

For `CCCCN(CC)c1nc(NCc2ccc(C(F)(F)F)cc2)ns1` [compound 319], the “Initial HTS Run % Run” value amounted to 121%, the “Initial HTS Run Visual Score” value was “L2” and the “Initial HTS Run mOD” value amounted to 133 mOD.

The assay is the same for the next values; noted with them: dose response, dilution V1, 5 day.
With `CCOC(=O)CCN(Cc1ccccc1)c1nc(NCc2ccc(C(F)(F)F)cc2)ns1` [compound 313], the “5 Day Visual Score V1” value is on record as “Dead(L2/L3)”.

For the compound `CN(CCc1ccccc1)c1nc(NCc2ccc(C(F)(F)F)cc2)ns1` [compound 314], the “5 Day Visual Score V1” value was “L1”.

For the compound `CN(Cc1ccccc1)c1nc(NCc2ccc(C(F)(F)F)cc2)ns1` [compound 315], the “5 Day Visual Score V1” value is reported as “L1”.

Turning to `OCC1CCCN1c1nc(NCc2ccc(C(F)(F)F)cc2)ns1` (centres unmarked) [compound 316], the “5 Day Visual Score V1” value is on record as “Dead”.

On to `COc1ccc(CCN(C)c2nc(NCc3ccc(C(F)(F)F)cc3)ns2)cc1OC` [compound 317], for which the “5 Day Visual Score V1” value is “Dead”.

As to `Cc1cccc(C)c1N1CCN(c2nc(NCc3ccccc3C(F)(F)F)ns2)CC1` [compound 318], the “5 Day Visual Score V1” value was “B (low broodsize (25-100 progeny))”.

Staying with this assay, now noted: dose response, dilution V2, 5 day.
`CCOC(=O)CCN(Cc1ccccc1)c1nc(NCc2ccc(C(F)(F)F)cc2)ns1` [compound 313]: the “5 Day Visual Score V2” value is listed as “Dead(L3)”.

With `CN(CCc1ccccc1)c1nc(NCc2ccc(C(F)(F)F)cc2)ns1` [compound 314], the “5 Day Visual Score V2” value was “L4#AD/B! and L1”.

As for `OCC1CCCN1c1nc(NCc2ccc(C(F)(F)F)cc2)ns1` (centres unmarked) [compound 316], the “5 Day Visual Score V2” value is “Dead(L3)”.

On to `Cc1cccc(C)c1N1CCN(c2nc(NCc3ccccc3C(F)(F)F)ns2)CC1` [compound 318], for which the “5 Day Visual Score V2” value is on record as “˜B (moderate broodsize (100-250 progeny))”.

As for `CCCCN(CC)c1nc(NCc2ccc(C(F)(F)F)cc2)ns1` [compound 319], the “5 Day Visual Score V2” value is listed as “˜B (moderate broodsize (100-250 progeny))”.

Still in this assay, the particulars now being: dose response, dilution V3, 5 day.
Consider `CN(CCc1ccccc1)c1nc(NCc2ccc(C(F)(F)F)cc2)ns1` [compound 314], for which the “5 Day Visual Score V3” value is “L1”.

In the case of `OCC1CCCN1c1nc(NCc2ccc(C(F)(F)F)cc2)ns1` (centres unmarked) [compound 316], the “5 Day Visual Score V3” value is “˜B (moderate broodsize (100-250 progeny))”.

For the compound `COc1ccc(CCN(C)c2nc(NCc3ccc(C(F)(F)F)cc3)ns2)cc1OC` [compound 317], the “5 Day Visual Score V3” value is “OK (no effect (˜1000+ progeny))”.

As to `Cc1cccc(C)c1N1CCN(c2nc(NCc3ccccc3C(F)(F)F)ns2)CC1` [compound 318], the “5 Day Visual Score V3” value is given as “OK (no effect (˜1000+ progeny))”.

For `CCCCN(CC)c1nc(NCc2ccc(C(F)(F)F)cc2)ns1` [compound 319], the “5 Day Visual Score V3” value is given as “OK (no effect (˜1000+ progeny))”.

The assay is the same for the next values; noted with them: dose response, dilution V4, 5 day.
As to `CCOC(=O)CCN(Cc1ccccc1)c1nc(NCc2ccc(C(F)(F)F)cc2)ns1` [compound 313], the “5 Day Visual Score V4” value is reported as “< (reduced broodsize (250-500 progeny))”.

Consider `CN(Cc1ccccc1)c1nc(NCc2ccc(C(F)(F)F)cc2)ns1` [compound 315], for which the “5 Day Visual Score V4” value is reported as “˜B (moderate broodsize (100-250 progeny))”.

With `OCC1CCCN1c1nc(NCc2ccc(C(F)(F)F)cc2)ns1` (centres unmarked) [compound 316], the “5 Day Visual Score V4” value is “< (reduced broodsize (250-500 progeny))”.

As for `COc1ccc(CCN(C)c2nc(NCc3ccc(C(F)(F)F)cc3)ns2)cc1OC` [compound 317], the “5 Day Visual Score V4” value is listed as “OK (no effect (˜1000+ progeny))”.

On to `Cc1cccc(C)c1N1CCN(c2nc(NCc3ccccc3C(F)(F)F)ns2)CC1` [compound 318], for which the “5 Day Visual Score V4” value was “OK (no effect (˜1000+ progeny))”.

For `CCCCN(CC)c1nc(NCc2ccc(C(F)(F)F)cc2)ns1` [compound 319], the “5 Day Visual Score V4” value is given as “OK (no effect (˜1000+ progeny))”.

The same assay, now with this note: dose response, dilution V5, 5 day.
As for `CCOC(=O)CCN(Cc1ccccc1)c1nc(NCc2ccc(C(F)(F)F)cc2)ns1` [compound 313], the “5 Day Visual Score V5” value is “OK (no effect (˜1000+ progeny))”.

For the compound `CN(Cc1ccccc1)c1nc(NCc2ccc(C(F)(F)F)cc2)ns1` [compound 315], the “5 Day Visual Score V5” value is listed as “OK (no effect (˜1000+ progeny))”.

Regarding `OCC1CCCN1c1nc(NCc2ccc(C(F)(F)F)cc2)ns1` (centres unmarked) [compound 316], the “5 Day Visual Score V5” value was “OK (no effect (˜1000+ progeny))”.

As for `COc1ccc(CCN(C)c2nc(NCc3ccc(C(F)(F)F)cc3)ns2)cc1OC` [compound 317], the “5 Day Visual Score V5” value is “OK (no effect (˜1000+ progeny))”.

Turning to `Cc1cccc(C)c1N1CCN(c2nc(NCc3ccccc3C(F)(F)F)ns2)CC1` [compound 318], the “5 Day Visual Score V5” value was “OK (no effect (˜1000+ progeny))”.

Consider `CCCCN(CC)c1nc(NCc2ccc(C(F)(F)F)cc2)ns1` [compound 319], for which the “5 Day Visual Score V5” value was “OK (no effect (˜1000+ progeny))”.

Still in this assay, the particulars now being: dose response, dilution V6, 5 day.
`CCOC(=O)CCN(Cc1ccccc1)c1nc(NCc2ccc(C(F)(F)F)cc2)ns1` [compound 313]: the “5 Day Visual Score V6” value was “OK (no effect (˜1000+ progeny))”.

On to `CN(CCc1ccccc1)c1nc(NCc2ccc(C(F)(F)F)cc2)ns1` [compound 314], for which the “5 Day Visual Score V6” value was “OK (no effect (˜1000+ progeny))”.

Consider `CN(Cc1ccccc1)c1nc(NCc2ccc(C(F)(F)F)cc2)ns1` [compound 315], for which the “5 Day Visual Score V6” value is recorded as “< (reduced broodsize (250-500 progeny))”.

For `OCC1CCCN1c1nc(NCc2ccc(C(F)(F)F)cc2)ns1` (centres unmarked) [compound 316], the “5 Day Visual Score V6” value is “OK (no effect (˜1000+ progeny))”.

For the compound `COc1ccc(CCN(C)c2nc(NCc3ccc(C(F)(F)F)cc3)ns2)cc1OC` [compound 317], the “5 Day Visual Score V6” value was “OK (no effect (˜1000+ progeny))”.

For the compound `Cc1cccc(C)c1N1CCN(c2nc(NCc3ccccc3C(F)(F)F)ns2)CC1` [compound 318], the “5 Day Visual Score V6” value is given as “OK (no effect (˜1000+ progeny))”.

`CCCCN(CC)c1nc(NCc2ccc(C(F)(F)F)cc2)ns1` [compound 319]: the “5 Day Visual Score V6” value is “OK (no effect (˜1000+ progeny))”.
